The text below walks through data of article PMC9300271, “Identifying Active Compounds and Mechanisms of Citrus changshan-Huyou Y. B. Chang against URTIs-Associated Inflammation by Network Pharmacology in Combination with Molecular Docking” (Evidence-based Complementary and Alternative Medicine : eCAM, 2022).

The target of one data set is PI3Kδ (p110δ/p85α) (Homo sapiens, UniProt O00329). The data set can be described thus: ADP-Glo Kinase Assay, inhibition of PI3Kδ.
For data set [1] the following is noted: retrieved from database; ref TCMSP database [18]; cited from earlier work.
A further data set addresses PI3Kβ (p110β/p85α) (Homo sapiens, UniProt P42338). The data set can be described thus: ADP-Glo Kinase Assay, inhibition of PI3Kβ.
A further data set deals with PI3Kγ (p120γ) (Homo sapiens, UniProt P48736). The data set can be described thus: ADP-Glo Kinase Assay, inhibition of PI3Kγ.
Chain of PI3Kγ (p120γ) (P48736 whole entry): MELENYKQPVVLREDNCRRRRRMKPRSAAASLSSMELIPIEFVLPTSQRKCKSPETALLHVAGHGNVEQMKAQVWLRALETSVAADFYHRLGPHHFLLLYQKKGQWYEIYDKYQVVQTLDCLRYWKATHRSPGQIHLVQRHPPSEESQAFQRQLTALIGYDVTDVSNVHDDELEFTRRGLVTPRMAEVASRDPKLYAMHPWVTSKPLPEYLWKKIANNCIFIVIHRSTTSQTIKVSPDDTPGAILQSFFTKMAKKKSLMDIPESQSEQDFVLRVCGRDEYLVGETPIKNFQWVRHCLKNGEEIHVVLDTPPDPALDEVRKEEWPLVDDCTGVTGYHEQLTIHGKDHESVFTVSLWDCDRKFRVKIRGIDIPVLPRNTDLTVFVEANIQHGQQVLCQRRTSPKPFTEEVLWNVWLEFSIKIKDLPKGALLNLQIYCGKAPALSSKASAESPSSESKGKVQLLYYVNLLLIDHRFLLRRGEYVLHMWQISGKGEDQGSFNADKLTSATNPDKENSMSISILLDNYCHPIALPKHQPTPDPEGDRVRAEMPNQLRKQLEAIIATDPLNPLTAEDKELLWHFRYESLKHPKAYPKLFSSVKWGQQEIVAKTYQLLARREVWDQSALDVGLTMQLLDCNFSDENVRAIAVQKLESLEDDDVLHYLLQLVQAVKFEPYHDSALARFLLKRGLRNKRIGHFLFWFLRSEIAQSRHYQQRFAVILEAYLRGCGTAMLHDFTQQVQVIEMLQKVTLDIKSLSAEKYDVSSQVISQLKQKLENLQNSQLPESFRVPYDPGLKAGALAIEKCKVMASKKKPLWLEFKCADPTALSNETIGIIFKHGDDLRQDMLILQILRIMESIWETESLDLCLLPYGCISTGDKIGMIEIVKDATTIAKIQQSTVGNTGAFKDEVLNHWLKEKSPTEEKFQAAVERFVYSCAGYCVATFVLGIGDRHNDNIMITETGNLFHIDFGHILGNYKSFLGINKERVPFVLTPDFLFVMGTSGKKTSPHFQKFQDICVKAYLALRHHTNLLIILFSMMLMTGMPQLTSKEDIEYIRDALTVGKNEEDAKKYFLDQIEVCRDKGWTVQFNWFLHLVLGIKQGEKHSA
The target in the next data set is PI3Kα (p110α/p85α) (Homo sapiens, UniProt P42336). The data set can be described thus: ADP-Glo Kinase Assay, inhibition of PI3Kα.
Chain of PI3Kα (p110α/p85α) (P42336 whole entry): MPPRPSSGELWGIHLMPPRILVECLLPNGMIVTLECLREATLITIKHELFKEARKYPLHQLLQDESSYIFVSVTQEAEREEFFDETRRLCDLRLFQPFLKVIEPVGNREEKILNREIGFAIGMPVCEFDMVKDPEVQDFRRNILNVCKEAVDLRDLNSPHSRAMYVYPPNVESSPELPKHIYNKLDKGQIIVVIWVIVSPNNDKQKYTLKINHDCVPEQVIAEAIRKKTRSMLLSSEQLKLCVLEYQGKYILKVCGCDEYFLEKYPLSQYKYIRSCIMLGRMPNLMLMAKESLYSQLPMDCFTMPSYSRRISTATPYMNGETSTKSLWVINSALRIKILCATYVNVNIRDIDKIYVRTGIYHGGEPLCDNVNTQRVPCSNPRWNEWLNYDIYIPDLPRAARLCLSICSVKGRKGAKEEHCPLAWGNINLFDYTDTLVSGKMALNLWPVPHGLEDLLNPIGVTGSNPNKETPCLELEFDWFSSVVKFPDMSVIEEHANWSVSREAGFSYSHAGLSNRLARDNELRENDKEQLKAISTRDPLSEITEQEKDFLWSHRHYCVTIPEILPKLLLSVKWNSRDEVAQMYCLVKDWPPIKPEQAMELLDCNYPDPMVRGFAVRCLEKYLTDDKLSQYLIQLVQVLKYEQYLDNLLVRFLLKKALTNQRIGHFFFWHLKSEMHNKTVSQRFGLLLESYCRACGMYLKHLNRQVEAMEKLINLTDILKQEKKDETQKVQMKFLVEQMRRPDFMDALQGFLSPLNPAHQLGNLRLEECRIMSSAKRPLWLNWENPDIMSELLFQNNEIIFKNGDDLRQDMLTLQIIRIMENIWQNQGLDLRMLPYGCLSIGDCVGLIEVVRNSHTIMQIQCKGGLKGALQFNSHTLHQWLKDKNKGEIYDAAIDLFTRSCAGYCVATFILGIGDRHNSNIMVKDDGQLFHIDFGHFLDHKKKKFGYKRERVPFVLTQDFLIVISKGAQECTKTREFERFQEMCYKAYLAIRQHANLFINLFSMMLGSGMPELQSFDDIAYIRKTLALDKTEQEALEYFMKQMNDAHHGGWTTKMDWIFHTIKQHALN
Chain of PI3Kα (p110α/p85α) (P27986 whole entry partner): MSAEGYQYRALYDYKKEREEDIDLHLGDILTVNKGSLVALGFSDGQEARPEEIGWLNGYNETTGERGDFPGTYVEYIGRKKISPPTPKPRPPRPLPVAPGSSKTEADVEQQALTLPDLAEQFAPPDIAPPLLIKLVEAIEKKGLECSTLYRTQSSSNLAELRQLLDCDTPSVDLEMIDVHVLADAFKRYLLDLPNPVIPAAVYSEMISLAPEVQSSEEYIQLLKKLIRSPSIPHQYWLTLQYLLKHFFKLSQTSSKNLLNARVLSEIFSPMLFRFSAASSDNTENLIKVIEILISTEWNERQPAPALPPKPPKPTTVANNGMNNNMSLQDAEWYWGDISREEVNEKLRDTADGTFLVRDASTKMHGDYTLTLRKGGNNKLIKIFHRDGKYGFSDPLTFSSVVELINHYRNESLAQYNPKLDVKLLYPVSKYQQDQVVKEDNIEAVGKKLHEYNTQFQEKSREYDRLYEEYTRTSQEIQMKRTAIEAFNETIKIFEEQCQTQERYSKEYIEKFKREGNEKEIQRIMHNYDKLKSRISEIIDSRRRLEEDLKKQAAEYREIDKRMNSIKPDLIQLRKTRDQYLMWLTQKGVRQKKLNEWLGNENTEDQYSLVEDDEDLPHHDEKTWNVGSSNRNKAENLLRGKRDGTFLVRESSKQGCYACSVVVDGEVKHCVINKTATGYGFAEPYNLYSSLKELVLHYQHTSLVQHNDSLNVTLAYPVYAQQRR
Details of data set [2]: method as in TCMSP database [18]. The conditions noted are these: retrieved from database; ref TCMSP database [18]; in h (unit assumed); cited from earlier work.

Structures are written as SMILES.

Chain of PI3Kβ (p110β/p85α) (P42338 whole entry): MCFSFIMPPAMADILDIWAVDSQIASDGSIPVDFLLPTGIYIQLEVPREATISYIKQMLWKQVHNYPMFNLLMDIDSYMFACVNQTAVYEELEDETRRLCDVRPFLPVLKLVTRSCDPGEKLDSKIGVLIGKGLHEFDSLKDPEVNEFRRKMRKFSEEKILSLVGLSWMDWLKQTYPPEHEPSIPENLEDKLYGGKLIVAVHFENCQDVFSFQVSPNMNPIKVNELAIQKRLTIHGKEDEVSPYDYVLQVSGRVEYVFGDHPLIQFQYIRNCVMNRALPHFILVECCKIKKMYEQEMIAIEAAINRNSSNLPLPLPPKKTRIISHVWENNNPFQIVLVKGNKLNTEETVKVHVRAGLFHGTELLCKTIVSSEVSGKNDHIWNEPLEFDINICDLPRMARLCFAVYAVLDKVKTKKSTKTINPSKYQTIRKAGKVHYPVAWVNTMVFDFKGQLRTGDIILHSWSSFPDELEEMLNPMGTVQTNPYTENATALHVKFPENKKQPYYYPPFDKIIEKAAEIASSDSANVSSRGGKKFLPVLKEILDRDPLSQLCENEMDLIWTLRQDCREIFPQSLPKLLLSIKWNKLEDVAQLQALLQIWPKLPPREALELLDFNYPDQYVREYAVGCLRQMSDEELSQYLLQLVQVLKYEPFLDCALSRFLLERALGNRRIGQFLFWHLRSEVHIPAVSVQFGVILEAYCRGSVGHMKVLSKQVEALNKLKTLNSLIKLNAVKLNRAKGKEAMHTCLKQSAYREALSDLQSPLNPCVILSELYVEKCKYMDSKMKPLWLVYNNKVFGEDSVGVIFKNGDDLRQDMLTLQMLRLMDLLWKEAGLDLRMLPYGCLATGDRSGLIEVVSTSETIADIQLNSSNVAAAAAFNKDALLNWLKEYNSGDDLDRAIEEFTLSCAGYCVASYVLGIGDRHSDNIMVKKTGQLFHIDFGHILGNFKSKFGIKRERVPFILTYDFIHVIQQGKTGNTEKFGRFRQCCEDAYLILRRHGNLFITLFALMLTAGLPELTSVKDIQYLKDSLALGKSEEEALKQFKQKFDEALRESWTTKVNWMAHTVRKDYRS
Chain of PI3Kβ (p110β/p85α) (P27986 whole entry partner): as the sequence (P27986 whole entry partner) above
Chain of PI3Kδ (p110δ/p85α) (O00329 whole entry): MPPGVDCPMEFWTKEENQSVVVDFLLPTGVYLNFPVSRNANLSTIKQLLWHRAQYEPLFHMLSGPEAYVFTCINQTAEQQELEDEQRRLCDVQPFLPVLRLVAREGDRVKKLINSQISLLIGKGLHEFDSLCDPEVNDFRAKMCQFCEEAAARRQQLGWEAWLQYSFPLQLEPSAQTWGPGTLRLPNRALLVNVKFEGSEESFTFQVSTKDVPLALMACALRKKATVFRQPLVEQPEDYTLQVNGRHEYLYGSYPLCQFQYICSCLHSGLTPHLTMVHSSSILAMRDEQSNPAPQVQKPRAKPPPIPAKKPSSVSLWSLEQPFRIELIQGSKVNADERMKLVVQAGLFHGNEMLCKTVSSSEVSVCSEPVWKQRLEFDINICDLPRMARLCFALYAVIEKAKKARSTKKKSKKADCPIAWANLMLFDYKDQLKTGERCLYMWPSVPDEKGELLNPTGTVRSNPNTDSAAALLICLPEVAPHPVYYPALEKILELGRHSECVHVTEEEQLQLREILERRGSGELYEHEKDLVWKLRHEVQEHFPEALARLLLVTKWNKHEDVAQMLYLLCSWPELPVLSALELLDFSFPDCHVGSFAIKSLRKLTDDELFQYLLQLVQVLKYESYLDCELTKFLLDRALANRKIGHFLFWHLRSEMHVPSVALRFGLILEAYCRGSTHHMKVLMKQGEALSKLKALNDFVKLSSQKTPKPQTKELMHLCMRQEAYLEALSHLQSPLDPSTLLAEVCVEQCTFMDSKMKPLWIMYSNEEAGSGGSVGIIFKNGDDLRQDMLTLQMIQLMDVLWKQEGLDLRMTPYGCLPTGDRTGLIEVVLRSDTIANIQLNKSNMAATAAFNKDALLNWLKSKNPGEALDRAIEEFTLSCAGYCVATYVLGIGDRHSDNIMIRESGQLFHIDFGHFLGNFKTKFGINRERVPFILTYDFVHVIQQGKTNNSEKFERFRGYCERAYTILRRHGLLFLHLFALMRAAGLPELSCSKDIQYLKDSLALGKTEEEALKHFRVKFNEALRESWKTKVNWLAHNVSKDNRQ
Chain of PI3Kδ (p110δ/p85α) (P27986 whole entry partner): as the sequence (P27986 whole entry partner) above

For `O=C1C[C@@H](c2ccc(O)cc2)Oc2cc(O)cc(O)c21` [NAR, naringenin], the IC50 against PI3Kδ (p110δ/p85α), at PI3Kβ (p110β/p85α), against PI3Kγ (p120γ) and on PI3Kα (p110α/p85α) was greater than 40 µM in each case. Further, the “OB (oral bioavailability)” value in data set [1] is recorded as 59.29%.
Consider `COc1ccc(-c2cc(=O)c3c(OC)c(OC)c(OC)c(OC)c3o2)cc1` [TAN, tangeretin], for which the IC50 on PI3Kδ (p110δ/p85α) is greater than 40 µM; against PI3Kβ (p110β/p85α), greater than 40 µM; against PI3Kγ (p120γ) it was 17.7 ± 1.16 µM; at PI3Kα (p110α/p85α), greater than 40 µM. Also, the “OB (oral bioavailability)” value in data set [1] is given as 21.38%.
With `O=c1cc(-c2ccc(O)c(O)c2)oc2cc(O)cc(O)c12` [LUT, luteolin], the IC50 worked out at 1.55 ± 0.15 µM on PI3Kδ (p110δ/p85α), 2.95 ± 0.19 µM at PI3Kβ (p110β/p85α), 5.79 ± 0.1 µM on PI3Kγ (p120γ) and 2.49 ± 0.34 µM at PI3Kα (p110α/p85α). Also, in data set [1], the “OB (oral bioavailability)” value is 36.16%. In data set [2], the “HL (drug half-life)” value was 15.94.
For `COc1ccc([C@@H]2CC(=O)c3c(O)cc(O)cc3O2)cc1O` [HES, hesperetin], the IC50 on PI3Kδ (p110δ/p85α), against PI3Kβ (p110β/p85α), against PI3Kγ (p120γ) and against PI3Kα (p110α/p85α) was greater than 40 µM in each case. For the same molecule, the “OB (oral bioavailability)” value in data set [1] is on record as 70.31%. For the same molecule, the “HL (drug half-life)” value in data set [2] is listed as 15.78.
`CC(C)=CCC/C(C)=C/COc1ccc2ccc(=O)oc2c1` [AUR, auraptene]: the IC50 against PI3Kδ (p110δ/p85α) is greater than 40 µM; against PI3Kβ (p110β/p85α), greater than 40 µM; on PI3Kγ (p120γ), 13.8 ± 1.31 µM; at PI3Kα (p110α/p85α), greater than 40 µM. For the same molecule, the “OB (oral bioavailability)” value in data set [1] is 25.62%.
With `COc1ccc(-c2cc(=O)c3c(OC)c(OC)c(OC)c(OC)c3o2)cc1OC` [NOB, nobiletin], in data set [1], the “OB (oral bioavailability)” value was 61.67%. In data set [2], the “HL (drug half-life)” value is 16.20.
